This note sets out measurements from US20100029622A1, “MICROEMULSIONS” (NEUROSCIENZE PHARMANESS S.C.A.R.L., priority 2008, published 2010).

In one data set the target is T1, opioidergic receptors k (Mus musculus, UniProt P33534).
T1 construct: the complete brain (excluding the cerebellum) was quickly dissected and kept in ice; from tissue; host or cells: CD1 mouse complete brain (excluding the cerebellum) homogenate/membranes
Nature of the data set: Radioreceptorial binding, receptors k (3H-U 69.593, brain membranes). More on the design: species or system mice. The conditions noted are these: 3H-U 69.593, 25° C. The source says:
The affinity of the compounds synthesized in the preceding examples towards the opioidergic receptors μ, δ, k has been evaluated in vitro by radioreceptorial binding studies by using the method reported hereinunder.
The experimentation has been carried out according to the guide lines of the European Community for the animal experimentation (EEC n. 86/609), by using laboratory animals (male mices CD1 Charles River Italy, Calco, LC, Italy) lodged twenty in a cage, under standard stabulation conditions (temperature 22±2° C., relative humidity 60%, artificial light with a light/dark cycle of 12 hours). The food and water were at disposal ad libitum.
Receptors k: CD1 male mice weighing 20-25 g were used. The animals were sacrificed by cervical dislocation and the complete brain (excluding the cerebellum) was quickly dissected and kept in ice. The tissue was homogeneized in 40 volumes (w/v) of Tris-HCl buffer (50 mM, pH 7.4) by an Ultra-Turrax, then centrifuged for 20 minutes at 48,000×g in a centrifuge kept at 4° C. The resulting […] was suspended again in the same buffer and incubated at 37° C. for 30 minutes in a bath kept under oscillation. At the end of the incubation the suspension was centrifuged 48,000×g for 15 minutes and the pellets suspended again in 10 volumes of the Tris-HCl buffer. The binding experiment was carried out in a volume of 1 ml at the temperature of 25° C. with about 800-1000 μg of proteins for sample. The incubation was carried out for 60 minutes in the,presence of different concentrations of the ligand ^3H-U 69.593 (41.7 Ci/mmole). The non specific binding was determined in the presence of U69593 (10 μM). The incubation was stopped by quick filtering by means of a filtration instrument (Brandell®, Gaithersburg, Md., USA) by using GF/C filters (Whatman®).
The radioactivity was determined by a scintillator in liquid phase (Tricarb® 2100, Packard, Meridien, Ill., USA), by using three ml of scintillating fluid (Ultima Cold MV, Packard, Meridien, Ill., USA).
The protein determination was carried out by the Bradford method (1976) by using the protocol and the reactants supplied by Bio-Rad (Milano, Italy).
The affinity of the compounds towards the receptors μ, δ, κ has been expressed in Ki terms.

For another data set, the target named is T2, opioidergic receptors μ (Mus musculus, UniProt P42866).
T2 construct: from tissue; host or cells: CD1 mouse total brain (excluding the cerebellum) membranes
T2 sequence (P42866 whole entry): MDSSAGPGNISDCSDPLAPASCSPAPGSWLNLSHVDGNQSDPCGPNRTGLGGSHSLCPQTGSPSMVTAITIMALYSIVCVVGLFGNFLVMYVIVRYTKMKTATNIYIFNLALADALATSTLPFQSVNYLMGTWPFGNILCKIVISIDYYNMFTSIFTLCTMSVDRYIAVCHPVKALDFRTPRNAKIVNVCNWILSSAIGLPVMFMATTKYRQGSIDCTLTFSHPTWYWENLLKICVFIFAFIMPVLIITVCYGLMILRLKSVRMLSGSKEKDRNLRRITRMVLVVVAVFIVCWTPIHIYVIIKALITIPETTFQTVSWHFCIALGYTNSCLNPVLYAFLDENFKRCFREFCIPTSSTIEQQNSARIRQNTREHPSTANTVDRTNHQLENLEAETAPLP
Nature of the data set: Radioreceptorial binding, receptors μ ([3H]-DAMGO displacement, brain membranes). More on the design: species or system mice. The note with it: 1 nM [3H]-DAMGO, 25° C.

The target in another data set is T3, opioidergic receptors δ (Mus musculus, UniProt P32300).
T3 construct: from tissue; host or cells: CD1 mouse total brain (excluding the cerebellum) membranes
T3 sequence (P32300 whole entry): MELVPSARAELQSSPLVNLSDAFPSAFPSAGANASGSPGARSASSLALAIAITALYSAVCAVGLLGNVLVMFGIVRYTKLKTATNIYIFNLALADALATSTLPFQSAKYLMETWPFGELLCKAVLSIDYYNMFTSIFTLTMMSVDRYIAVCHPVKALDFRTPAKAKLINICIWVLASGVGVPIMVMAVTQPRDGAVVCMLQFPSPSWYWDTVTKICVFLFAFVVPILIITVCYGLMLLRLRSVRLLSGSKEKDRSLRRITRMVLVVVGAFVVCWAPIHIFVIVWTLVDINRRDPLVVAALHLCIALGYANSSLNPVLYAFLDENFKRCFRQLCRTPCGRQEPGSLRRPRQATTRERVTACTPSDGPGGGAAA
Nature of the data set: Radioreceptorial binding, receptors δ ([3H]-DPDPE displacement, brain membranes). More on the design: species or system mice. The conditions noted are these: 1 nM [3H]-DPDPE, 25° C.

SMILES strings stand for the structures.

T1 sequence (P33534 whole entry): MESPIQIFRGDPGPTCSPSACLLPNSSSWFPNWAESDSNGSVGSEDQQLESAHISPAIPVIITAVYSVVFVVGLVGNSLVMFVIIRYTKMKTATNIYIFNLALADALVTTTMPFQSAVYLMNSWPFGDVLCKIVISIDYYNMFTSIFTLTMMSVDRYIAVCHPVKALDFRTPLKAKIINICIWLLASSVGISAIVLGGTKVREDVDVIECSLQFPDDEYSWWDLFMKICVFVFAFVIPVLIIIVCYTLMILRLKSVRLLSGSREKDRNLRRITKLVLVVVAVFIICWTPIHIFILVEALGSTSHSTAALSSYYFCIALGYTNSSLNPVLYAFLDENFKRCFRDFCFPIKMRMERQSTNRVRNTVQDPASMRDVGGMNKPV

With `CCC(=O)N1C2CCCC1CN(C/C=C(\C)c1ccccc1)CC2` (stereo not drawn) [I-Da], the melting point – broadly, the temperature of the solid-liquid transition – was in the range of 144 to 146 °C. In addition, at opioidergic receptors k, the Ki (commonly a dissociation constant, usually derived from enzyme kinetics or from competition with a known ligand) worked out at 1.47 ± 0.317 µM. The compound further had a Ki on opioidergic receptors μ of 0.04 ± 0.0028 µM. For the same compound, affinity on opioidergic receptors δ was put at a Ki of 3.87 ± 0.125 µM.
Consider `CCC(=O)N1CCC2CCCC(C1)N2C/C=C(\C)c1ccc(Cl)c(Cl)c1` (stereo not drawn) [I-Cb], for which the melting point lay within 184 to 185 °C. The compound further came in with a Ki on opioidergic receptors k of 0.425 ± 0.038 µM. For the same compound, the Ki on opioidergic receptors μ amounted to 0.00425 ± 0.0003 µM. The same compound came in with an inhibitory constant (Ki) on opioidergic receptors δ of 1.12 ± 0.216 µM.
The like results for `CCC(=O)N1CCC2CCC(C1)N2CC=C(c1ccccc1)c1ccccc1` (stereo not drawn) [I-Ad] were, in that order, 176 to 177 °C, 0.103 ± 0.007 µM, 0.0107 ± 0.0003 µM and 0.142 ± 0.025 µM.
The like results for `CCC(=O)N1C2CCCC1CN(CC=C(c1ccccc1)c1ccccc1)CC2` (stereo not drawn) [I-Dc] were, in that order, 169 to 170 °C, 1.93 ± 0.233 µM, 0.0233 ± 0.0016 µM and 1.69 ± 0.312 µM.
The like results for `CCC(=O)N1CCC2CCC(C1)N2C/C=C(\C)c1ccc(Cl)c(Cl)c1` (stereo not drawn) [I-Ab] were, in that order, 188 to 189 °C, 0.1 ± 0.005 µM, 0.007 ± 0.0015 µM and 0.867 ± 0.044 µM.
For `CCC(=O)N1CCC2CCCC(C1)N2C/C=C(\C)c1ccccc1` (stereo not drawn) [I-Ca], the melting point was 106 to 108 °C. The inhibitory constant (Ki) on opioidergic receptors k turned out to be 0.41 ± 0.01 µM. Besides, on opioidergic receptors μ, the inhibitory constant (Ki) amounted to 0.017 ± 0.0013 µM. For the same compound, the inhibition constant Ki at opioidergic receptors δ came to 1.67 ± 0.166 µM.
For `CCC(=O)N1CCC2CCC(C1)N2C/C=C(\C)c1ccccc1` (stereo not drawn) [I-Aa], in that order: 230 to 232 °C, 0.055 ± 0.025 µM, 0.0057 ± 0.001 µM and 0.425 ± 0.025 µM.
The like results for `CCC(=O)N1C2CCC1CN(CC=C(c1ccccc1)c1ccccc1)CC2` (stereo not drawn) [I-Bd] were, in that order, 184 to 186 °C, 1.13 ± 0.186 µM, 0.0207 ± 0.00233 µM and 0.333 ± 0.005 µM.
For `CCC(=O)N1C2CCC1CN(C/C=C(\C)c1ccccc1)CC2` (stereo not drawn) [I-Ba], in that order: 228 to 230 °C, 0.9 ± 0.1 µM, 0.0083 ± 0.0012 µM and 0.933 ± 0.033 µM.
Compound `CCC(=O)N1C2CCCC1CN(C/C=C(\C)c1ccc(Cl)c(Cl)c1)CC2` (stereo not drawn) [I-Db] yielded a melting point of 175 to 176 °C. On opioidergic receptors k, this compound came in with a Ki of 1.17 ± 0.12 µM. Moreover, the Ki at opioidergic receptors μ was found to be 0.0175 ± 0.0014 µM. The same compound yielded a Ki on opioidergic receptors δ of 3.25 ± 0.166 µM.
For `CCC(=O)N1C2CCC1CN(C/C=C(\C)c1ccc(Cl)c(Cl)c1)CC2` (stereo not drawn) [I-Bb], in that order: 186 to 188 °C, 0.393 ± 0.023 µM, 0.0041 ± 0.00035 µM and 0.85 ± 0.058 µM.
For the compound `CCC(=O)N1CCC2CCCC(C1)N2CC=C(c1ccccc1)c1ccccc1` (stereo not drawn) [I-Cc], the melting point fell in the range of 137 to 139 °C. In addition, the Ki on opioidergic receptors k came to 0.04 ± 0.0001 µM. Affinity at opioidergic receptors μ was put at a Ki of 0.00316 ± 0.0006 µM. The compound further came in with an inhibition constant Ki on opioidergic receptors δ of 0.187 ± 0.0297 µM.
